What was measured:
MRL/lpr mice [1] = test: Experiment 3: topical treatment of skin lesions in MRL/lpr mice with As2O5; format: in vivo, mouse; conditions: 0.5 mg/ml
Protocol: Methods: The arsenic compound As2O5 is first dissolved at a high concentration (10 to 15 mg/ml) in distilled water until a clear and colorless solution is obtained. The solution is made sterile and free of particles by filtration on a 0.22 μm filter. The stock As2O5 solution thus obtained is then diluted in phosphate buffer or sterile physiological saline so as to obtain a concentration between 0.5 mg/ml for use in vivo. The stock solution of the arsenic compound As2O5 is preserved for 1 to 3 months in the refrigerator (4° C.), while the dilute solution is preserved for only 5 days at 4° C. and away from light.
MRL/lpr mice (12 females and 12 males, 4 to 5 months of age) presenting severe lupus-type skin lesions, and for some cutaneous necrotizing vasculitis (time t0 in FIG. 6), were treated 5 times per week (Monday to Friday), for 8 weeks, by applying on the tissue lesions a compress (or a brush) impregnated with a solution of arsenic As2O5 at concentrations of 0.5 mg/ml. The control animals were mice of the same age and sex treated with the excipient.

MRL/lpr mice [2] = test: Experiment 4: gradual decrease in number of weekly topical applications of As2O5; format: in vivo, mouse
Protocol: Methods: Severe skin lesions and cutaneous necrotizing vasculitis present at time t0 in 10 MRL/lpr mice 4 to 5 months in age were treated by applying a compress (or a brush) impregnated with a solution of the arsenic compound As2O5 at the concentration of 0.5 mg/ml.

MRL/lpr mice [3] = test: Experiment 5: systemic (intraperitoneal) treatment of skin lesions in MRL/lpr mice with As2O5; format: in vivo, mouse
Protocol: Methods: MRL/lpr mice (6 females and 6 males, 4 to 5 months of age) presenting severe lupus-type skin lesions and cutaneous necrotizing vasculitis (time t0 FIGS. 8A and 8B) were treated 5 times per week (Monday to Friday), for 3 or 4 weeks, by intraperitoneal injections of 0.1 ml per 10 g of mouse of a solution of arsenic As2O5 at the concentration of 0.5 mg/ml. The control animals were mice of the same age and sex treated with the excipient.

MRL/lpr mice [4] = test: Experiment 6: local treatment with suboptimal As2O3, As2O5 or the combination; format: in vivo, mouse; conditions: suboptimal 0.12 mg/ml, 5 applications/week, 8 weeks
Protocol: (§1) Methods: MRL/lpr mice (males and females) presenting severe lupus-type skin lesions and cutaneous necrotizing vasculitis were treated 5 times per week, for 8 weeks, by administering an aqueous solution containing either the arsenic compound As2O3 or the compound As2O5 or a mixture of both compounds As2O3+As2O5 or phosphate buffer (PBS) as negative control. Weakly effective doses (suboptimal) of As2O3 or As2O5 were voluntarily used. The arsenic compounds were administered in aqueous form using compresses or a brush for local treatment or an intraperitoneal injection for systemic treatment.
(§2) At the conclusion of the treatment, the blood of each animal was sampled in order to quantify in the serum the levels of autoantibodies (anti-DNA, rheumatoid factor) and cytokines involved in the disease. Skin from the back of each animal was sampled for histological analysis and for analysis of the nature of the inflammatory infiltrate after isolating the cells using enzymatic methods, their counts under the microscope and their analyses by flow cytometry using fluorescent antibodies specific to leukocytes.

MRL/lpr mice [5] = test: Experiment 6: systemic treatment with suboptimal As2O3, As2O5 or the combination; format: in vivo, mouse; conditions: suboptimal 0.12 mg/ml, 5 times/week, 8 weeks
Protocol: as §1, §2

[6] = cited from earlier work
[7] = ratio to As2O3; cited from earlier work
MRL/lpr mice [8] = test: Experiment 1: topical treatment of skin lesions in MRL/lpr mice with As2O3; format: in vivo, mouse; conditions: 0.5 mg/ml
Excerpt: MRL/lpr mice spontaneously develop disseminated lupus erythematosus, rheumatoid polyarthritis and Sjögren's syndrome characterized by dermatological, vascular, renal, pulmonary, articular and ocular damage due to lymphoid cell infiltrates. As in man, a strong sexual dimorphism is observed in MRL/lpr mice, the female mice presenting an earlier and more severe pathology than the males and dying earlier. The disease begins around the age of 8 weeks and causes the death of the mice, on average, at around 18 weeks of age for the females and 22 weeks for the males, the average lifespan of a normal mouse being 2 years.
Methods: The solubility of arsenic compounds depends mainly on the pH and oxidation-reduction conditions and the temperature of the excipient. Since the arsenic compound As2O3 is poorly water soluble, it is first dissolved at a high concentration (60 to 70 mg/ml) in dilute alkaline solution (0.5 or 1 M) and gently heated until a clear and colorless solution is obtained. This solution is made free of particles and sterile by filtration on a 0.22 μm filter. The stock As2O3 solution thus obtained is then diluted in phosphate buffer or sterile physiological saline at the concentration varying from 0.5 mg/ml for use in vivo. The stock solution of the arsenic compound As2O3 is preserved from 1 to 3 months in the refrigerator (4° C.), whereas the dilute solution is preserved only 5 days at 4° C. and away from light.
MRL/lpr mice (10 females and 10 males per group, aged 4 to 5 months) presenting severe lupus-type skin lesions, and for some cutaneous necrotizing vasculitis, were treated, 3 or 5 times per week depending on the experiment (from Monday to Friday), for 8 weeks, by application on the tissue lesions of a compress (or a brush) impregnated with arsenic As2O3 solution at concentrations of 0.5 mg/ml. The control animals were mice, of the same age and sex, treated with the excipient.

MRL/lpr mice [9] = test: Experiment 2: gradual decrease in number of weekly topical applications of As2O3; format: in vivo, mouse
Protocol: Methods: Severe skin lesions and cutaneous necrotizing vasculitis present before treatment (time t0 in FIGS. 3, 4 and 5) in 15 4-month-old MRL/lpr mice were treated by applying a compress (or a brush) impregnated with a solution of the arsenic compound As2O3 at the concentration of 0.5 mg/ml. The number of applications per week varied from 2 to 5 depending on the experiment. Similarly, the total duration of the topical treatment varied from 7 to 32 weeks.

[10] = 20° C.; cited from earlier work

O=[As](=O)O[As](=O)=O [As2O5, arsenic pentoxide]
regrowth of hair (regeneration of lesioned skin tissue) (MRL/lpr mice [1]): nearly complete regrowth of hair
destruction of the skin in first week of treatment (MRL/lpr mice [1]; 5 applications/week): ceased
skin lesions after 4 weeks of treatment (MRL/lpr mice [1]; 5 applications/week): almost disappeared
time until destruction of skin tissue ceased (MRL/lpr mice [1]; 5 applications/week): less than 2 weeks
undesirable effect (nonspecific immunosuppression, tissue toxicity or premature death) (MRL/lpr mice [1]; 8 weeks): no undesirable effect
relapse or rebound of the disease at a single application per week (MRL/lpr mice [2]; 5 weeks, 1 application/week): no relapse or rebound
time to stop development of tissue lesions (MRL/lpr mice [2]; front-line treatment, 5 applications/week): ≤ 2 weeks
skin lesions after 2 further weeks at 2 applications per week (MRL/lpr mice [2]; topical, 0.5 mg/ml): nearly disappeared
inflammatory skin and vasculitis lesions after 2 weeks (MRL/lpr mice [2]; topical, 0.5 mg/ml, 5 applications/week): ceased
survival after the beginning of the treatment (majority of animals) (MRL/lpr mice [2]; topical, schedule reduced from 5 to 1 application/week): more than 8 weeks
regrowth of hair (regeneration of lesioned skin tissue) (MRL/lpr mice [3]): nearly complete regrowth of hair
undesirable effect (nonspecific immunosuppression, tissue toxicity or premature death) (MRL/lpr mice [3]; 0.5 mg/ml solution): no undesirable effect
destruction of skin after 3 or 4 weeks of treatment (MRL/lpr mice [3]; 0.1 ml per 10 g of 0.5 mg/ml, 5 times/week): strongly regressed or even nearly disappeared
cells in lymphocytic/inflammatory infiltrate of back skin (FIG. 9A) (MRL/lpr mice [4]): still high number of cells
inflammatory skin lesions (FIG. 10) (MRL/lpr mice [4]): presence of severe skin lesions
cells in lymphocytic/inflammatory infiltrate of back skin (FIG. 9B) (MRL/lpr mice [5]): still high number of cells
oral lethal dose for man [6]: 5 to 50 mg/kg
toxicity relative to As2O3 [7]: about 1/60

arsenic trioxide [As2O3]
regrowth of hair (skin tissue regeneration) (MRL/lpr mice [8]): nearly complete regrowth of hair
tissue lesions after 8 weeks with 3 weekly applications (MRL/lpr mice [8]; 3 applications/week, less severe lesions, female mice): significant decrease
tissue destruction after 2 weeks of treatment (MRL/lpr mice [8]; 5 applications/week, 2 weeks): ceased and even regressed
inflammatory skin lesions after 8 weeks of treatment (MRL/lpr mice [8]; 5 applications/week, 8 weeks): nearly completely disappear
undesirable effect (nonspecific immunosuppression, tissue toxicity or premature death) (MRL/lpr mice [8]; 8 weeks): No undesirable effect
relapse or rebound of the disease after reduced dosing schedule (MRL/lpr mice [9]; 5/week for 4 weeks, then 3/week for 6 weeks, female mouse): no relapse or rebound
skin damage after 7 weeks of topical treatment (MRL/lpr mice [9]; 5 applications/week for 2 weeks, then 2/week for 5 weeks): decreased considerably
age reached by treated mouse (euthanized) (MRL/lpr mice [9]; female, 3.5 months old at t0, treated 32 weeks discontinuously): 1 year
cells in lymphocytic/inflammatory infiltrate of back skin (FIG. 9A) (MRL/lpr mice [4]): still high number of cells
inflammatory skin lesions (FIG. 10) (MRL/lpr mice [4]): presence of severe skin lesions
cells in lymphocytic/inflammatory infiltrate of back skin (FIG. 9B) (MRL/lpr mice [5]): still high number of cells
solubility in water [10]: 37 mg/mL

— patent publication US10438128B2, “Treatment of autoimmune and inflammatory diseases with the arsenic compounds AS2O3 and/or AS2O5 administered locally” (CENTRE NATIONAL DE LA RECHERCHE SCIENTIFIQUE (CNRS), priority 2013, dated 2019)
